Measured values: US8604023B2, “1,4-benzodiazepinone compounds and their use in treating cancer” (The Regents of the University of Michigan, priority 2009, dated 2013)

Test system: Ramos cells
Assay: cytotoxicity in Ramos cells
Format: cell-based
Details: Homo sapiens
Method: The compounds listed in Table 5 were tested for cytotoxicity in Ramos cells. The assay was conducted as described in K. M. Johnson et al. Chemistry & Biology 2005, 12, 485-496.

| Structure (SMILES) | EC50 [µM] |
| --- | --- |
| CN1C(=O)C(Cc2ccc3ccccc3c2)N=C(N2CCC(NC(=O)CN)CC2)c2cc(Cl)ccc21 (stereo not drawn) [Compound V-10] | ≤ 5 |
| CC(=O)OCC(=O)Nc1ccc(C2=NC(Cc3ccc4ccccc4c3)C(=O)N(C)c3ccc(Cl)cc32)cn1 (stereo not drawn) [Compound V-14] | ≤ 5 |
| Cc1n[nH]cc1C1=NC(Cc2ccccc2Cl)C(=O)Nc2ccc(Cl)cc21 (stereo not drawn) [Compound V-40] | 5 to 25 |
| O=C1Nc2ccc(Cl)cc2C(c2ccncc2)=NC1Cc1ccccc1Cl (stereo not drawn) [Compound V-19] | 5 to 25 |
| O=C1Nc2ccc(Cl)cc2C(c2ccc(N3CCOCC3)nc2)=NC1Cc1ccccc1Cl (stereo not drawn) [Compound V-28] | ≤ 5 |
| O=C1Nc2ccc(Cl)cc2C(c2ccc(N3CCCC3)nc2)=NC1Cc1ccccc1Cl (stereo not drawn) [Compound V-31] | ≤ 5 |
| Cc1n[nH]c(C)c1C1=NC(Cc2ccccc2Cl)C(=O)Nc2ccc(Cl)cc21 (stereo not drawn) [Compound V-41] | 5 to 25 |
| O=C1Nc2ccc(Cl)cc2C(c2ccc(N3CC[C@@H](O)C3)nc2)=NC1Cc1ccccc1Cl (stereo partly drawn) [Compound V-32] | 5 to 25 |
| CN1C(=O)C(Cc2ccc3ccccc3c2)N=C(N2CCC(N)CC2)c2cc(Cl)ccc21 (stereo not drawn) [Compound V-6] | 5 to 25 |
| CN1C(=O)C(Cc2ccc3ccccc3c2)N=C(N2CCC(O)CC2)c2cc(Cl)ccc21 (stereo not drawn) [Compound V-1] | ≥ 25 |
| CN1C(=O)C(Cc2ccc3ccccc3c2)N=C(N2CCC3(CC2)OCCO3)c2cc(Cl)ccc21 (stereo not drawn) [Compound V-5] | ≤ 5 |
| O=C1Nc2ccc(Cl)cc2C(c2ccnc(N3CCNCC3)c2)=NC1Cc1ccccc1Cl (stereo not drawn) [Compound V-25] | 5 to 25 |
| Nc1ncc(C2=NC(Cc3ccccc3Cl)C(=O)Nc3ccc(Cl)cc32)cn1 (stereo not drawn) [Compound V-20] | 5 to 25 |
| CN1C(=O)C(Cc2ccc3ccccc3c2)N=C(c2csc(CO)n2)c2cc(Cl)ccc21 (stereo not drawn) [Compound V-16] | ≤ 5 |
| O=C1Nc2ccc(Cl)cc2C(c2ccc(N3CCC(CO)CC3)nc2)=NC1Cc1ccccc1Cl (stereo not drawn) [Compound V-29] | ≤ 5 |
| Nc1ccc(C2=NC(Cc3ccc4ccccc4c3)C(=O)Nc3ccc(Cl)cc32)cn1 (stereo not drawn) [Compound V-4] | 5 to 25 |
| CN1C(=O)C(Cc2ccc3ccccc3c2)N=C(c2ccc(N)cn2)c2cc(Cl)ccc21 (stereo not drawn) [Compound V-11] | ≤ 5 |
| CN1C(=O)C(Cc2ccc3ccccc3c2)N=C(c2ccc(N)nc2)c2cc(Cl)ccc21 (stereo not drawn) [Compound V-2] | 5 to 25 |
| CN1C(=O)C(Cc2ccc3ccccc3c2)N=C(N2CCC(NC(=O)c3ccccc3)CC2)c2cc(Cl)ccc21 (stereo not drawn) [Compound V-13] | ≥ 25 |
| O=C1Nc2ccc(Cl)cc2C(c2cnc3[nH]c(=O)[nH]c3c2)=NC1CCc1ccccc1Cl (stereo not drawn) [Compound V-35] | 5 to 25 |

| Structure (SMILES) | EC50 [µM] |
| --- | --- |
| Nc1cncc(C2=NC(Cc3ccccc3Cl)C(=O)Nc3ccc(Cl)cc32)c1 (stereo not drawn) [Compound V-22] | ≥ 25 |
| O=C1Nc2ccc(Cl)cc2C(c2cnc3[nH]c(=O)[nH]c3c2)=NC1Cc1ccccc1Cl (stereo not drawn) [Compound V-24] | ≤ 5 |
| CCc1ccc(CC2N=C(c3cnc(N)nc3)c3cc(Cl)ccc3NC2=O)cc1CC (stereo not drawn) [Compound V-21] | 5 to 25 |
| Nc1ccc(C2=NC(Cc3ccccc3Cl)C(=O)Nc3ccc(Cl)cc32)cn1 (stereo not drawn) [Compound V-18] | 5 to 25 |
| CC(=O)Nc1ccc(C2=NC(Cc3ccccc3Cl)C(=O)Nc3ccc(Cl)cc32)cn1 (stereo not drawn) [Compound V-17] | 5 to 25 |
| O=C1CCN(C2=NC(Cc3ccc4ccccc4c3)C(=O)Nc3ccc(Cl)cc32)CC1 (stereo not drawn) [Compound V-7] | 5 to 25 |
| CN1C(=O)C(Cc2ccc3ccccc3c2)N=C(c2cnc(N)cn2)c2cc(Cl)ccc21 (stereo not drawn) [Compound V-3] | ≥ 25 |
| Nc1ccc(C2=NC(Cc3ccccc3Cl)C(=O)N(C3CC3)c3ccc(Cl)cc32)cn1 (stereo not drawn) [Compound V-36] | 5 to 25 |
| CN1CCN(c2ccc(C3=NC(Cc4ccccc4Cl)C(=O)Nc4ccc(Cl)cc43)cn2)CC1 (stereo not drawn) [Compound V-26] | ≤ 5 |
| CN1C(=O)C(Cc2ccc3ccccc3c2)N=C(N2CCC(NC(=O)OC(C)(C)C)CC2)c2cc(Cl)ccc21 (stereo not drawn) [Compound V-9] | ≥ 25 |
| COc1ccc(C2(O)CCN(C3=NC(Cc4ccc5ccccc5c4)C(=O)Nc4ccc(Cl)cc43)CC2)cc1 (stereo not drawn) [Compound V-8] | ≤ 5 |
| COCCNc1ccc(C2=N[C@@H](Cc3ccccc3Cl)C(=O)Nc3ccc(Cl)cc32)cn1 [Compound V-34] | 5 to 25 |
| CC(=O)NC1CCN(C2=NC(Cc3ccc4ccccc4c3)C(=O)N(C)c3ccc(Cl)cc32)CC1 (stereo not drawn) [Compound V-12] | 5 to 25 |
| CC(=O)N1CCN(c2ccc(C3=NC(Cc4ccccc4Cl)C(=O)Nc4ccc(Cl)cc43)cn2)CC1 (stereo not drawn) [Compound V-30] | ≤ 5 |
| O=C1Nc2ccc(Cl)cc2C(c2cn[nH]c2)=NC1Cc1ccccc1Cl (stereo not drawn) [Compound V-37] | 5 to 25 |
| O=C1Nc2ccc(Cl)cc2C(c2cn[nH]c2)=NC1Cc1ccc2ccccc2c1 (stereo not drawn) [Compound V-39] | ≤ 5 |
| CN1C(=O)C(Cc2ccc3ccccc3c2)N=C(c2ccc(NC(=O)CO)nc2)c2cc(Cl)ccc21 (stereo not drawn) [Compound V-15] | 5 to 25 |
| O=C1Nc2ccc(Cl)cc2C(c2ccc(N3CCC(O)CC3)nc2)=NC1Cc1ccccc1Cl (stereo not drawn) [Compound V-27] | ≤ 5 |
| COCCNc1ccc(C2=NC(Cc3ccccc3Cl)C(=O)Nc3ccc(Cl)cc32)cn1 (stereo not drawn) [Compound V-33] | 5 to 25 |
